pIC50: −log10 of the molar value.
Legend:
[1] = In vitro drug release test (dialysis pouch); assay type: physicochemical; conditions: over 48 h; SBF pH 7.4, release medium SBF + 0.5% Tween 80
Experimental: The in vitro drug release of PTX from the formulation was measured as follows: PTX and PS (all containing 2 mg PTX) were placed in the cellulose membrane pouch (Snakeskin^TM Dialysis Tubing 10,000 MWCO; Thermo Fisher Scientific Inc.; Waltham, MA, USA), and 5 mL of SBF (pH 7.4) was added inside the cellulose membrane pouch. The cellulose membrane pouch was put into 50 mL of SBF containing 0.5% Tween 80 in a 250 mL beaker and shaken at 100 rpm in a dual-motion shaker (Finepcr; Gunpo-si, Republic of Korea). Samples (100 μL aliquots) were collected for 48 h, and then diluted 100-fold with mobile phase and injected into the LC-MS/MS system to measure the PTX concentration.
In this study, PS in 5 mL SBF was placed in a dialysis pouch, while the exterior release medium consisted of 50 mL of SBF + 0.5% Tween 80. This large external volume and surfactant content allowed the PTX released from the pouch to diffuse into the external medium and remain dissolved.

[2] = tested on: B16F10 cells; test: Cell viability (MTT assay); assay type: cell-based; conditions: Mus musculus, B16-F10, 48 h exposure, 0–1000 nM PTX or equivalent
Experimental: B16F10 cells were seeded at a density of 4 × 10^4 cells per well in a 96-well plate and incubated at 37 °C in a 5% CO2 atmosphere for 24 h to allow cell attachment and stabilization before drug administration. After 24 h, the medium was replaced with fresh culture media containing various PTX formulations (i.e., PTX, PS, PS with CUR, PS with TPGS, and PS with verapamil) at increasing concentrations (0, 10, 20, 50, 100, 200, 500, and 1000 nM) of PTX or its equivalent amount.
After 48 h of drug exposure, MTT reagent (0.5 mg/mL in PBS, 15 μL) was added to each well, followed by an additional 4 h incubation to allow mitochondrial dehydrogenase enzymes in viable cells to reduce MTT into insoluble formazan crystals. The resulting formazan was then solubilized using 150 μL DMSO, and the absorbance was measured at 592 nm using an ultraviolet (UV) spectrophotometer. Cell viability was calculated relative to the untreated control group. Data were fitted using the inhibitory effect model v=Emax(1−[I]/IC50+[I]) . Emax and IC50 represent uninhibited cell viability (%) and the concentration of PTX (nM) at which half-maximal inhibition occurs. [I] represents the concentration of PTX.

[3] = tested on: B16F10 spheroids; test: Cytotoxicity and PTX accumulation in 3D cultured spheroid; assay type: cell-based; conditions: for spheroid growth / radius: 5 days, PTX 25 µg/mL or equivalent, CUR 200 µg/mL, TPGS 600 µg/mL, SMB7 200 µg/mL
Experimental: B16F10 cells were seeded at a density of 3 × 10^5 cells per well in an ultra-low attachment 96-well plate to facilitate spheroid formation. Immediately after seeding, the plate was centrifuged at […] for 15 min to promote cell aggregation. Following centrifugation, the spheroids were allowed to stabilize for 24 h before drug treatment. The spheroids were treated with the following conditions and grown for 5 days: control, 200 μg/mL of SMB7, 200 μg/mL of curcumin, 25 μg/mL of PTX, PS (equivalent to 25 μg/mL PTX), PS with curcumin (equivalent to 25 μg/mL PTX + 200 μg/mL curcumin), and PS with TPGS (equivalent to 25 μg/mL PTX + 600 μg/mL TPGS).
During the culture period, the spheroid radius was measured daily to assess tumor growth inhibition across different treatment groups. After five days, the spheroids were harvested, disrupted into a single-cell suspension, and analyzed for intracellular PTX and curcumin concentrations using LC–MS/MS. Additionally, the culture medium was collected from each well and analyzed to quantify the remaining extracellular concentrations of PTX and curcumin, providing further insights into drug uptake and retention within the spheroids.

[4] = tested on: B16F10 cells; test: Apoptosis analysis by flow cytometry (Annexin V); assay type: cell-based; conditions: 24 h; equivalent to 25 μg/mL PTX (+200 μg/mL CUR, +600 μg/mL TPGS)
Experimental: B16F10 cells were seeded at a density of 8 × 10^4 cells in a cell culture dish and cultured until a confluency of 80% was reached. Upon reaching the desired confluency, the culture medium was aspirated and replaced with fresh medium containing one of the following treatments: control, PTX (25 μg/mL), PS (equivalent to 25 μg/mL PTX), PSC (equivalent to 25 μg/mL PTX + 200 μg/mL curcumin), and PSCT (equivalent to 25 μg/mL PTX + 200 μg/mL curcumin + 600 μg/mL TPGS).
After 24 h of treatment, the culture supernatant was collected into a 15 mL conical tube. Cells were then detached using 1.5 mL of trypsin, and the resulting cell suspension—including detached cells and debris—was combined with the previously collected medium in the same tube. The samples were centrifuged at 1000 rpm for 3 min, and the supernatant was carefully discarded. The cell pellet was resuspended in 1 mL of DMEM supplemented with 10% FBS and 1% penicillin–streptomycin. Subsequently, 100 μL of the Muse Annexin V and Dead Cell kit (Cytek Biosciences Inc., Fremont, CA, USA) was added to the cell suspension, and the samples were incubated at room temperature in the dark for 20 min. Apoptosis and cell viability were then assessed using the Guava® Muse® Cell Analyzer (Cytek Biosciences Inc., Fremont, CA, USA).

[5] = tested on: β-tubulin; test: Confocal staining of β-tubulin and nuclei; assay type: cell-based; conditions: B16F10 cells, 24 h; PTX 25 µg/mL or equivalent, CUR 200 µg/mL, TPGS 600 µg/mL, SMB7 200 µg/mL
Experimental: B16F10 cells were seeded at a density of 4 × 10^4 cells per well in a 24-well plate and cultured until a confluency of 80% was reached. Once the desired confluency was achieved, the culture medium was replaced with fresh media containing the following respective treatments: control, 200 μg/mL of SMB7, 200 μg/mL of curcumin, 25 μg/mL of PTX, PS (equivalent to 25 μg/mL PTX), PS with curcumin (equivalent to 25 μg/mL PTX + 200 μg/mL curcumin), and PS with TPGS (equivalent to 25 μg/mL PTX + 600 μg/mL TPGS).
Cells were incubated post-treatment for 24 h and then fixed and stained to visualize intracellular structures. DAPI was used for DNA staining to highlight nuclear morphology, and goat anti-Mouse IgG conjugated with FSD 594 was employed for β-tubulin staining to observe microtubule organization. As PTX primarily acts by stabilizing microtubules, fluorescence images were acquired using an LSM700 confocal laser scanning microscope (Carl Zeiss GmbH, Oberkochen, Germany). Confocal images were acquired at 100 × magnification to enhance the visualization of DNA and β-tubulin structures, enabling the assessment of PTX-induced cytoskeletal disruption and apoptosis-related nuclear changes.

[6] = Biodistribution in B16F10 melanoma-bearing mice; assay type: in vivo, C57BL/6 mice; conditions: C57BL/6, mouse, subcutaneous, heart, lung, kidney, pancreas, liver and tumor tissues, read-out: PTX tissue concentration relative to plasma
Experimental: After the final injection, the mice from PTX + CUR, PSC, and PSCT groups were randomly subdivided into two time points (n = 5 for each subgroup; 2 h and 8 h post-administration) for pharmacokinetic and biodistribution analyses. At the designated time points (0.25, 1, and 2 h from the 2 h group; 0.5, 4, and 8 h from the 8 h group), blood samples (approximately 80 µL) were collected from the retro-orbital plexus of mice. For the PTX and CUR analyses, 30 µL of plasma aliquots were stored at −80 °C. At 2 h, the mice were anesthetized, and the organs (heart, lung, liver, kidney, pancreas, and tumor) were harvested, weighed, and homogenized using a MM400 Laboratory Ball Mixer Mill (Retsch, Haan, Germany). Aliquots (50 µL) of 20% tissue homogenates prepared using 10% MeOH were stored at −80 °C for subsequent analyses. […]
The biodistribution of PTX in various mouse tissues was quantified and expressed as a percentage of the injected dose per gram of tissue (%ID/g). […] The following formula was used to calculate the drug concentration in the tissue, which is measured (e.g., ng), normalized to the total injected dose, and further corrected based on the weight of the harvested tissue to standardize drug accumulation across different organs as follows: %ID/g=Drug amount in each organmg/Injected Dose mg×100×1/Organ weight (g) .

[7] = after 5 days of treatment, equivalent to 25 μg/mL PTX

CC(=O)O[C@H]1C(=O)[C@@]2(C)[C@H]([C@H](OC(=O)c3ccccc3)[C@]3(O)C[C@H](OC(=O)[C@H](O)[C@@H](NC(=O)c4ccccc4)c4ccccc4)C(C)=C1C3(C)C)[C@]1(OC(C)=O)CO[C@@H]1C[C@@H]2O [PTX, Paclitaxel]
drug release [1]: 6.58%
pIC50 [2]: 6.55
spheroid growth / radius [3]: significantly suppressed the tumor growth of B16F10 spheroids
Incorporated PTX [3, 7]: 20.3%
PTX concentration (intracellular accumulation in spheroids) [3, 7]: 5.09 ± 0.16 µg/mL
early apoptosis [4]: 11.5%
late apoptosis (Late Apop./Dead) [4]: 9.8%
total apoptosis rate [4]: 21.3%
β-tubulin expression (microtubule integrity) [5]: pronounced decrease in β-tubulin intensity
Kp at 2 h [6]: > 100

COc1cc(/C=C/C(=O)CC(=O)/C=C/c2ccc(O)c(OC)c2)ccc1O [CUR, Curcumin]
spheroid growth / radius [3]: significantly suppressed the tumor growth of B16F10 spheroids
β-tubulin expression (microtubule integrity) [5]: moderate reduction in β-tubulin expression
